Our source for the melting point and IC50 values is patent publication US7511041B2, “Fused azole-pyrimidine derivatives” (Bayer Pharmaceuticals Corporation, priority 2002, dated 2009).

Data set [1] concerns the target T1, Recombinant human PI3Kγ (full length human PI3K p110γ) (Homo sapiens, UniProt P48736).
T1 construct: full length human PI3K p110γ fused with a His6-tag at the C-terminus; His6 (C); purchased ALEXIS BIOCHEMICALS #201-055-C010; host or cells: S. frugiperda 9 insect cells
The data set is described as follows: Kinase assay of PI3Kγ (solid-phase lipid kinase assay). Format: biochemical. The note with it: in vitro PI3K-γ inhibitory activity, class symbols A-D; read-out: in vitro PI3K-gamma.

Some results are limits rather than exact numbers.

T1 sequence (P48736 whole entry, the tested form may be a part): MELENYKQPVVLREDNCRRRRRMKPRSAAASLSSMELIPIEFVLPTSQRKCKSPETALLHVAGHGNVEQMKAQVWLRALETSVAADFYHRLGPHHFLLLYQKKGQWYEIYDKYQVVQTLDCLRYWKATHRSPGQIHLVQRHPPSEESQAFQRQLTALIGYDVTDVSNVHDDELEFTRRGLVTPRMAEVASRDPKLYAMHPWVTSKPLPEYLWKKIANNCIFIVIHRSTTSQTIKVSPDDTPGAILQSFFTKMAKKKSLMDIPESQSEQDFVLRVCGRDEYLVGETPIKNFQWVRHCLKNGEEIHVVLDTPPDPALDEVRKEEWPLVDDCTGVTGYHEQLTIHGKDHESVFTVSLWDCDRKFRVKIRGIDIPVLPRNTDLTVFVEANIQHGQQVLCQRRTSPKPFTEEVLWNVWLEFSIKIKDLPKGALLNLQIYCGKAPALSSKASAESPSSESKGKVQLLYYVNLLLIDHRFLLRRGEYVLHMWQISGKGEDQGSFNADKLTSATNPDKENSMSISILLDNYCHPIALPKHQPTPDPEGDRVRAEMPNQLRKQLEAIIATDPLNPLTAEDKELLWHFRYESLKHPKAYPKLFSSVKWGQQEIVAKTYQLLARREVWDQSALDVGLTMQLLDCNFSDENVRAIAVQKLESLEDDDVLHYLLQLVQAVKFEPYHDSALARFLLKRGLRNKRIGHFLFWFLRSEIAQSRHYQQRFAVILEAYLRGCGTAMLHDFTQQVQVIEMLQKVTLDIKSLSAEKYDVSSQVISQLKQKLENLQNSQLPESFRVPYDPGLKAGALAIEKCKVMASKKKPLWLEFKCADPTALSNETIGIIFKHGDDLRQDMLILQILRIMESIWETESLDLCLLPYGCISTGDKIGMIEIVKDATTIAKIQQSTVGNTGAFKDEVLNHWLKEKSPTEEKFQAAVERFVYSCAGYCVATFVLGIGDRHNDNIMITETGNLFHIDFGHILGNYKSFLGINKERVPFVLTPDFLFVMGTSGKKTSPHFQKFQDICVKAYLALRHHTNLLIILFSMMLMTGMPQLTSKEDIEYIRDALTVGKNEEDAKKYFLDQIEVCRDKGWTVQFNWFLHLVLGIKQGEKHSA

As to `O=C(NC1=Nc2ccccc2C2=NCCN12)c1ccccc1Cl.O=C(O)C(F)(F)F` [Example 2-226], the melting point (usually the temperature, or range, at which the solid turns liquid) lay within 221 to 224 °C. The IC50 in data set [1] was greater than 2 µM.
`O=C(NC1=Nc2ccccc2C2=NCCN12)c1cccc(Cl)c1` [Example 2-227] returned a melting point of 196 to 197 °C. Moreover, in data set [1], the IC50 is greater than 2 µM.
The like results for `O=C(NC1=Nc2ccccc2C2=NCCN12)c1cccc(Cl)c1.O=C(O)C(F)(F)F` [Example 2-228] were, in that order, 233 to 235 °C and 0.5 to 2 µM.
`O=C(NC1=Nc2ccccc2C2=NCCN12)c1ccc(Cl)cc1` [Example 2-229] displayed a melting point of 226 to 228 °C. Also, the IC50 in data set [1] was greater than 2 µM.
For the compound `O=C(NC1=Nc2ccccc2C2=NCCN12)c1cc(Cl)cc(Cl)c1` [Example 2-231], the melting point was 268 to 269 °C. Besides, the IC50 in data set [1] was greater than 2 µM.
For `COc1ccccc1C(=O)NC1=Nc2ccccc2C2=NCCN12` [Example 2-232] the same measures were 185 to 187 °C and greater than 2 µM.
For `COc1cccc(C(=O)NC2=Nc3ccccc3C3=NCCN23)c1` [Example 2-233] the same measures were 202 to 204 °C and greater than 2 µM.
As to `COc1cccc(C(=O)NC2=Nc3ccccc3C3=NCCN23)c1.O=C(O)C(F)(F)F` [Example 2-234], the melting point lay in the range of 209 to 211 °C. Moreover, the IC50 in data set [1] lay in the range of 0.5 to 2 µM.
On to `COc1ccc(C(=O)NC2=Nc3ccccc3C3=NCCN23)cc1` [Example 2-235], for which the melting point was 300 °C (dec.). Moreover, the IC50 in data set [1] is greater than 2 µM.
`CC(C)(C)Oc1ccc(C(=O)NC2=Nc3ccccc3C3=NCCN23)cc1` [Example 2-236] displayed a melting point greater than 410 °C. Besides, the IC50 in data set [1] is greater than 2 µM.
Regarding `COc1ccc(C(=O)NC2=Nc3ccccc3C3=NCCN23)c(OC)c1.Cl` [Example 2-237], the melting point is 259 °C (dec.). Also, the IC50 in data set [1] was greater than 2 µM.
In the case of `COc1ccc(C(=O)NC2=Nc3ccccc3C3=NCCN23)cc1OC.Cl` [Example 2-238], the melting point was 274 °C (dec.). For the same compound, the IC50 in data set [1] was in the range of 0.1 to 0.5 µM.
`COc1cc(OC)cc(C(=O)NC2=Nc3ccccc3C3=NCCN23)c1` [Example 2-239]: the melting point was 330 °C (dec.). For the same compound, the IC50 in data set [1] is greater than 2 µM.
The like results for `COc1cc(C(=O)NC2=Nc3ccccc3C3=NCCN23)cc(OC)c1OC.Cl` [Example 2-240] were, in that order, 291 °C (dec.) and greater than 2 µM.
For `COc1cc(C(=O)NC2=Nc3ccccc3C3=NCCN23)cc(OC)c1C` [Example 2-241] the same measures were 248 °C (dec.) and greater than 2 µM.
For `CSc1ccc(C(=O)NC2=Nc3ccccc3C3=NCCN23)cc1` [Example 2-243] the same measures were 169 to 170 °C and greater than 2 µM.
Consider `CS(=O)(=O)c1ccc(C(=O)NC2=Nc3ccccc3C3=NCCN23)cc1` [Example 2-245], for which the melting point is 278 °C (dec.). Besides, the IC50 in data set [1] is greater than 2 µM.
For `NS(=O)(=O)c1ccc(C(=O)NC2=Nc3ccccc3C3=NCCN23)cc1` [Example 2-247], the melting point was 278 °C (dec.). Besides, the IC50 in data set [1] lay within 0.5 to 2 µM.
The like results for `NS(=O)(=O)c1ccc(C(=O)NC2=Nc3ccccc3C3=NCCN23)c(Cl)c1` [Example 2-249] were, in that order, 240 °C (dec.) and greater than 2 µM.
The compound `O=C(NC1=Nc2ccccc2C2=NCCN12)c1ccccc1[N+](=O)[O-].O=C(O)C(F)(F)F` [Example 2-251] gave a melting point of 198 to 200 °C. The IC50 in data set [1] was greater than 2 µM.
The compound `O=C(NC1=Nc2ccccc2C2=NCCN12)c1cccc([N+](=O)[O-])c1` [Example 2-252] returned a melting point of 265 to 267 °C. Besides, in data set [1], the IC50 is greater than 2 µM.
`O=C(NC1=Nc2ccccc2C2=NCCN12)c1ccc([N+](=O)[O-])cc1` [Example 2-254]: the melting point is 279 to 281 °C. In addition, in data set [1], the IC50 was greater than 2 µM.
The compound `N#Cc1ccc(C(=O)NC2=Nc3ccccc3C3=NCCN23)cc1.O=C(O)C(F)(F)F` [Example 2-256] came in with a melting point of 248 to 250 °C. Moreover, the IC50 in data set [1] is greater than 2 µM.
Turning to `Nc1ccccc1C(=O)NC1=Nc2ccccc2C2=NCCN12.O=C(O)C(F)(F)F` [Example 2-257], the melting point is 175 °C (dec.). The IC50 in data set [1] was greater than 2 µM.
Regarding `CN(C)c1cccc(C(=O)NC2=Nc3ccccc3C3=NCCN23)c1` [Example 2-258], the melting point lay in the range of 188 to 190 °C. The IC50 in data set [1] was greater than 2 µM.
On to `CN(C)c1ccc(C(=O)NC2=Nc3ccccc3C3=NCCN23)cc1.O=C(O)C(F)(F)F` [Example 2-260], for which the melting point is 240 °C (dec.). Besides, the IC50 in data set [1] is greater than 2 µM.
The compound `CN1CCN(c2ccc(C(=O)NC3=Nc4ccccc4C4=NCCN34)cc2)CC1` [Example 2-261] returned a melting point of 218 to 222 °C. Also, in data set [1], the IC50 is greater than 2 µM.
Regarding `CC(=O)Nc1cccc(C(=O)NC2=Nc3ccccc3C3=NCCN23)c1.O=C(O)C(F)(F)F` [Example 2-262], the melting point was 253 °C (dec.). Further, the IC50 in data set [1] was greater than 2 µM.
As to `CN(C=O)c1ccc(C(=O)NC2=Nc3ccccc3C3=NCCN23)cc1` [Example 2-263], the melting point lay in the range of 208 to 210 °C. The IC50 in data set [1] was greater than 2 µM.
On to `CC(C)(C)OC(=O)Nc1cccc(C(=O)NC2=Nc3ccccc3C3=NCCN23)c1` [Example 2-265], for which the melting point is 280 °C (dec.). Besides, the IC50 in data set [1] is greater than 2 µM.
Compound `O=C(NC1=Nc2ccccc2C2=NCCN12)c1ccc(-n2cccc2)cc1` [Example 2-266] yielded a melting point of 218 to 220 °C. Also, in data set [1], the IC50 is greater than 2 µM.
`O=C(NC1=Nc2ccccc2C2=NCCN12)c1ccc(-n2ccnc2)cc1` [Example 2-268]: the melting point is 267 °C (dec.). Besides, the IC50 in data set [1] was greater than 2 µM.
As to `O=C(NC1=Nc2ccccc2C2=NCCN12)c1ccc(-n2cccn2)cc1` [Example 2-270], the melting point is 209 to 211 °C. Further, in data set [1], the IC50 is greater than 2 µM.
The like results for `COC(=O)c1cccc(C(=O)NC2=Nc3ccccc3C3=NCCN23)c1` [Example 2-272] were, in that order, 224 to 226 °C and greater than 2 µM.
Compound `COC(=O)c1ccc(C(=O)NC2=Nc3ccccc3C3=NCCN23)cc1` [Example 2-273] gave a melting point of 253 to 255 °C. In data set [1], the IC50 was greater than 2 µM.
The like results for `CCOC(=O)c1cc(C(=O)NC2=Nc3ccccc3C3=NCCN23)cc(C(=O)OCC)c1` [Example 2-274] were, in that order, 289 °C (dec.) and greater than 2 µM.
For the compound `O=C(NC1=Nc2ccccc2C2=NCCN12)c1ccccn1` [Example 2-276], the melting point was in the range of 204 to 205 °C. In addition, the IC50 in data set [1] was 0.5 to 2 µM.
`O=C(NC1=Nc2ccccc2C2=NCCN12)c1ccncc1` [Example 2-278] registered a melting point of 224 to 225 °C. For the same compound, in data set [1], the IC50 was in the range of 0.5 to 2 µM.
Regarding `O=C(NC1=Nc2ccccc2C2=NCCN12)c1ccc(C(F)(F)F)nc1` [Example 2-280], the melting point was in the range of 219 to 220 °C. Further, in data set [1], the IC50 was greater than 2 µM.
`Cl.O=C(NC1=Nc2ccccc2C2=NCCN12)c1ccc(C(F)(F)F)nc1` [Example 2-281] came in with a melting point greater than 250 °C. Moreover, in data set [1], the IC50 lay in the range of 0.5 to 2 µM.
Take `CN(C)c1ccc(C(=O)NC2=Nc3ccccc3C3=NCCN23)cn1` [Example 2-282]: the melting point is 249 °C (dec.). Moreover, the IC50 in data set [1] was greater than 2 µM.
The like results for `CN(C)c1ccc(C(=O)NC2=Nc3ccccc3C3=NCCN23)cn1.Cl` [Example 2-283] were, in that order, 311 °C (dec.) and 0.5 to 2 µM.
The like results for `Cl.O=C(NC1=Nc2ccccc2C2=NCCN12)c1cccnc1O` [Example 2-284] were, in that order, 346 °C (dec.) and greater than 2 µM.
The like results for `COc1ncccc1C(=O)NC1=Nc2ccccc2C2=NCCN12` [Example 2-285] were, in that order, 198 to 199 °C and 0.5 to 2 µM.
As for `COc1ccc(C(=O)NC2=Nc3ccccc3C3=NCCN23)c(OC)n1` [Example 2-286], the melting point was 244 to 245 °C. Also, the IC50 in data set [1] was greater than 2 µM.
On to `COc1ccc(C(=O)NC2=Nc3ccccc3C3=NCCN23)c(OC)n1.Cl` [Example 2-287], for which the melting point is 210 °C (dec.). The IC50 in data set [1] was 0.5 to 2 µM.
For `CSc1ncccc1C(=O)NC1=Nc2ccccc2C2=NCCN12` [Example 2-288], the melting point was in the range of 233 to 234 °C. Further, in data set [1], the IC50 is greater than 2 µM.
`CSc1ncccc1C(=O)NC1=Nc2ccccc2C2=NCCN12.Cl` [Example 2-289] gave a melting point of 298 to 299 °C. For the same compound, the IC50 in data set [1] is 0.5 to 2 µM.
Compound `Cc1ccc(C(=O)NC2=Nc3ccccc3C3=NCCN23)c(Cl)n1` [Example 2-290] returned a melting point of 213 to 214 °C. The IC50 in data set [1] was in the range of 0.1 to 0.5 µM.
On to `O=C(NC1=Nc2ccccc2C2=NCCN12)c1ccc(Cl)nc1` [Example 2-291], for which the melting point was in the range of 246 to 247 °C. Further, in data set [1], the IC50 is 0.1 to 0.5 µM.
Compound `O=C(NC1=Nc2ccccc2C2=NCCN12)c1cnccn1` [Example 2-292] showed a melting point of 267 to 268 °C. The IC50 in data set [1] was in the range of 0.5 to 2 µM.
`Cc1cnc(C(=O)NC2=Nc3ccccc3C3=NCCN23)cn1` [Example 2-294]: the melting point was 257 °C (dec.). Moreover, the IC50 in data set [1] was in the range of 0.5 to 2 µM.
`Cn1cccc1C(=O)NC1=Nc2ccccc2C2=NCCN12` [Example 2-296] displayed a melting point of 128 to 129 °C. The IC50 in data set [1] lay within 0.5 to 2 µM.
Take `O=C(NC1=Nc2ccccc2C2=NCCN12)c1ccco1` [Example 2-298]: the melting point is 350 °C (dec.). Further, the IC50 in data set [1] is 0.5 to 2 µM.
Take `Cl.O=C(NC1=Nc2ccccc2C2=NCCN12)c1ccco1` [Example 2-299]: the melting point was 311 °C (dec.). Further, in data set [1], the IC50 fell in the range of 0.5 to 2 µM.
